Measured values: patent US11028051B2, “Tetrahydroquinoline-based bromodomain inhibitors” (St. Jude Children's Research Hospital, priority 2016, dated 2021)
pEC50, pKd: −log10 of the molar value. Like-named read-outs stand apart in the source and are kept apart here.

Assays:
[1] = target: BRD2-BD1 (Homo sapiens (Human), UniProt P25440); assay: competitive TR-FRET assay, BET-BD with acetylated peptide ligand; format: binding; settings: for EC50: read-out: EC50 (μM) BRD2(1)
Description: (§1) Inhibitor potency was determined using a competitive TR-FRET assay as detailed herein, measuring interaction of the respective BET-BD with an acetylated peptide ligand (Table 2).

[2] = target: BRD2-BD2 (Homo sapiens (Human), UniProt P25440); assay: as above; format: binding; settings: for EC50: read-out: EC50 (μM) BRD2(2)
Chain of BRD2-BD2 (P25440 344-453): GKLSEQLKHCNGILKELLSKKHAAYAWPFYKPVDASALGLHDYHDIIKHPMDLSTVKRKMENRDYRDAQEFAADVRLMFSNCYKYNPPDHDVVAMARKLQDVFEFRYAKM
Description: as §1

[3] = target: BRD3-BD1 (Homo sapiens (Human), UniProt Q15059); assay: as above; format: binding; settings: for EC50: Table 6, read-out: EC50 (μM) BRD3(1)
Chain of BRD3-BD1 (Q15059 34-140): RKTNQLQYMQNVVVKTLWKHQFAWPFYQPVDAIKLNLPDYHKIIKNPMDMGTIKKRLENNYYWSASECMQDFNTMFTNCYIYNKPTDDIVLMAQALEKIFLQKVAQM
Description: as §1

[4] = target: BRDT (Homo sapiens, UniProt Q58F21); assay: as above; format: binding
Description: as §1

[5] = test system: HDMB03 cells; assay: cell viability, CellTiter-Glo; format: cell-based, human; settings: Homo sapiens, read-out: EC50 (μM) HDMB03
Description: Human G3 medulloblastoma or mouse SHH medulloblastoma cells were grown as neurospheres in supplemented neurobasal medium, as previously described (Kawauchi et al., 2012.)
(§2) After 7 days of treatment, an equal volume of CellTiter-Glo reagent (G7572, Promega) was added and the luminescence signal was measured using an automated Envision plate reader (Perkin-Elmer). Luminescence data were normalized by log10 transformation prior to calculating the percent inhibition using the following equation:
(§3) 100*(negative control mean −compound value)/(negative control mean −positive control mean).
High-throughput assay data were analyzed using Robust Interpretation of Screening Experiments (RISE) application written in Pipeline Pilot (Accelrys, v. 8.5) and the R program (R Development Core Team).
Dose-response curves were calculated by regressing the median percent inhibition obtained over triplicate experiments to log 10-transformed concentrations. Non-linear regression was then performed using the R drc package with the four parameter log-logistic function (LL2.4) (Ritz and Streibig, 2009). Curves were fit under three different constraints: (1) all parameters free, (2) high response fixed to 100, (3) low response fixed to 0; and the best fit from these three nested models was selected using the anova.drc function.

[6] = test system: MV-4-11; assay: anti-proliferative activity; format: cell-based; settings: Homo sapiens, MV4-11; Table 7
Description: as §2, §3

[7] = test system: c-Myc expression in HDMB03 cells; assay: c-Myc expression inhibition, high content microscopy (HCM); format: cell-based, human; settings: Homo sapiens, read-out: EC50 (μM) Myc-inhibition
Description: 3000 human G3 medulloblastoma or 2000 mouse SHH medulloblastoma cells per well were plated into 384-well plates (6007710, Perkin Elmer) in 30 μL of supplemented neurobasal medium using a Wellmate automated dispenser (Thermo Matrix). After 24 hours, 125 nl of compound was transferred via pin tool, resulting in a final drug concentration from 2 nM to 40 μM. 72 hours after adding the drug, the plates were fixed with 4% formaldehyde for 20 min. After fixation the cells were then washed 3 times with 75 μl of PBS. The cells were then permeabilized with 0.1% Triton-X 100 for 15 minutes at 25° C. and blocked using 1% BSA in PBS for 1 hour at 25° C. The primary antibody against c-Myc Ab (#9402, Cell Signaling) at a 1:400 dilution was diluted in 1% BSA in PBS. This mixture was added to each well before incubation overnight at 4° C. Each well was then washed 3 times with PBS using a Biotek ELX405 Select plate washer, and incubated for 1 hour at 25° C. with a solution containing 1/400 goat α-rabbit-Alexa-488 (4412S, Cell Signaling) and 1 μM Hoechst 33342 to detect nuclear material (H3570, Molecular Probes). Two images were captured of each well at 10× using a GE Healthcare InCell 6000 at 405 nM to detect nuclear staining and 488 nM to detect c-Myc. All data were analyzed using the multi-target analysis algorithm of the GE InCell Analyzer Workstation software. The number of nuclear objects in each well, as well as all nuclear measurements, was determined through nuclear masks over the Hoechst staining. C-Myc staining was then measured using top-hat segmentation in the entire cell.

[8] = target: BRD2(1) (Homo sapiens (Human), UniProt P25440); assay: BROMOscan KD determination; format: binding; settings: Table 10
Chain of BRD2(1) (P25440 74-180): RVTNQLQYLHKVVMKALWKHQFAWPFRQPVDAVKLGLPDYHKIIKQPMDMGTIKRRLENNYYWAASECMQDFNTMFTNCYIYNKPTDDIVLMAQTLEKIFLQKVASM
Excerpt: (§4) DiscoverX® can screen compounds against all ˜42 bromodomains (a service called BROMOscan) and perform follow-up KD determination. This service is considered the industrial standard for bromodomain inhibitor comparisons. […] Dots are symbolic of inhibition of the compound at this concentration; the larger the size of the dot, the greater the activity of the compound. […] Though these compounds are selective for the BET family, the selectivity within the BET family is poor. The results of a competitive binding experiment between compounds 19 (left), 41 (center), and 56 (right) (at a single concentration, 1 μM) and a control for each of the bromodomains are shown in FIG. 5.

[9] = target: BRD2(2) (Homo sapiens (Human), UniProt P25440); assay: BROMOscan KD determination; format: binding; settings: for [2(1)/2(2)]: BROMOscan KD ratio; for pKd: BROMOscan, Table 10
Chain of BRD2(2) (P25440 344-453): as the sequence (P25440 344-453) above
Excerpt: as §4

[10] = target: BRDT(1) (Homo sapiens (Human), UniProt Q58F21); assay: BROMOscan KD determination; format: binding; settings: Table 10
Excerpt: as §4

[11] = target: BRDT(2) (Homo sapiens (Human), UniProt Q58F21); assay: BROMOscan KD determination; format: binding; settings: for T(1)/T(2): BROMOscan KD ratio; for pKd: BROMOscan, Table 10
Excerpt: as §4

[12] = target: BRD3(1) (Homo sapiens (Human), UniProt Q15059); assay: BROMOscan KD determination; format: binding; settings: Table 10
Chain of BRD3(1) (Q15059 34-140): as the sequence (Q15059 34-140) above
Excerpt: (§5) DiscoverX® can screen compounds against all ˜42 bromodomains (a service called BROMOscan) and perform follow-up KD determination. This service is considered the industrial standard for bromodomain inhibitor comparisons.

[13] = target: BRD3(2) (Homo sapiens (Human), UniProt Q15059); assay: BROMOscan KD determination; format: binding; settings: for 3(1)/3(2): BROMOscan KD ratio; for pKd: BROMOscan, Table 10
Chain of BRD3(2) (Q15059 306-415): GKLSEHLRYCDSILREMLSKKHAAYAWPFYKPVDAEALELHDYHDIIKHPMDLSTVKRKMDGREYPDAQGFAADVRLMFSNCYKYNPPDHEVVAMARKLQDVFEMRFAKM
Excerpt: as §5

[14] = target: BRD4(1) (Homo sapiens (Human), UniProt O60885); assay: BROMOscan KD determination; format: binding; settings: Table 10
Excerpt: as §5

[15] = target: BRD4(2) (Homo sapiens (Human), UniProt O60885); assay: BROMOscan KD determination; format: binding; settings: for 4(1)/4(2): BROMOscan KD ratio; for pKd: BROMOscan, Table 10
Excerpt: as §5

[16] = target: BRD4-BD1 (Homo sapiens (Human), UniProt O60885); assay: competitive TR-FRET assay, BET-BD with acetylated peptide ligand; format: binding
Description: as §1

[17] = target: BRD4-BD2 (Homo sapiens (Human), UniProt O60885); assay: as above; format: binding
Description: as §1

[18] = Table 6, head names no target, BRDT by comparison with Table 4, read-out: EC50

Chain of BRD2-BD1 (P25440 74-180): as the sequence (P25440 74-180) above

| SMILES | EC50 ([1]; Table 6) | [2(1)/2(2)] ([2]; Table 6, ratio of EC50) | EC50 ([2]; Table 6) | EC50 [3] | pEC50 [4, 18] | EC50 ([5]; HD-MB03, Table 7) | EC50 [6] | EC50 ([7]; HD-MB03, Table 7) | pKd [8] | [2(1)/2(2)] [9] | pKd [9] | pKd [10] | T(1)/T(2) [11] | pKd [11] | pKd [12] | 3(1)/3(2) [13] | pKd [13] | pKd [14] | 4(1)/4(2) [15] | pKd [15] | also measured |
| --- | --- | --- | --- | --- | --- | --- | --- | --- | --- | --- | --- | --- | --- | --- | --- | --- | --- | --- | --- | --- | --- |
| COC(=O)c1ccc(N[C@@H]2C[C@H](C)N(C(C)=O)c3ccc(-c4cccc(NCCC(F)(F)F)c4)cc32)cc1 [compound 47] | 2.3 µM | 7.2 | 0.32 µM | 1.9 µM | 5.24 | 0.35 µM | 0.008 µM | 0.25 µM | 7.39 | 8.2 | 8.30 | 7.68 | 2.6 | 8.09 | 7.43 | 16.1 | 8.64 | 7.49 | 11.4 | 8.55 | – |
| COC(=O)c1ccc(N[C@@H]2C[C@H](C)N(C(C)=O)c3ccc(-c4cccc(NCc5ccoc5)c4)cc32)cc1 [compound 43] | 0.51 µM | 10 | 0.05 µM | 0.41 µM | 5.92 | 1.5 µM | 0.007 µM | 0.88 µM | – | – | – | – | – | – | – | – | – | – | – | – | – |
| CC(=O)Nc1cccc(-c2ccc3c(c2)[C@H](Nc2ccc4ncccc4c2)C[C@H](C)N3C(C)=O)c1 [compound 13] | – | – | – | – | – | – | – | – | 7.55 | 14.0 | 8.70 | 7.70 | 2.9 | 8.16 | 7.66 | 28.2 | 9.11 | 7.77 | 13.1 | 8.89 | pEC50 ([1]; BRD2-BD1, Table 11 additional modifications, read-out: 2.1 EC50): 6.06; pEC50 ([2]; BRD2-BD2, Table 11 additional modifications, read-out: 2.2 EC50): 4.23; 2.1/2.2 ([2]; ratio of BRD2-BD1 EC50 to BRD2-BD2 EC50 (selectivity)): 0.015; pEC50 ([3]; BRD3-BD1, Table 11 additional modifications, read-out: 3.1 EC50): 5.96; pEC50 ([16]; BRD4-BD1, Table 11 additional modifications, read-out: 4.1 EC50): 5.89; pEC50 ([17]; BRD4-BD2, Table 11 additional modifications, read-out: 4.2 EC50): 4.22; pEC50 ([4]; BRDT, Table 11 additional modifications, read-out: BRDT EC50): 5.60 |
| CCCNc1cccc(-c2ccc3c(c2)[C@H](Nc2ccc(C(=O)OC)cc2)C[C@H](C)N3C(C)=O)c1 [compound 46] | 1.3 µM | 7.6 | 0.17 µM | 1 µM | 5.59 | 0.35 µM | 0.018 µM | 0.34 µM | – | – | – | – | – | – | – | – | – | – | – | – | – |
| CC(=O)Nc1cccc(-c2ccc3c(c2)[C@H](Nc2ccc(F)cc2)C[C@H](C)N3C(C)=O)c1 [compound 39] | – | – | – | – | – | – | – | – | – | – | – | – | – | – | – | – | – | – | – | – | EC50 ([1]; Table 4): 5.6 µM; [2(1)/2(2)] ([2]; Table 4, ratio of EC50): 51; EC50 ([2]; Table 4): 0.11 µM; pEC50 ([3]; Table 4, read-out: BRD3(1)): 5.57; EC50 ([16]; Table 4, read-out: EC50 (μM) BRD4(1)): 5.7 µM; 4(1)/4(2) ([17]; Table 4, ratio of EC50): 63; EC50 ([17]; Table 4, read-out: EC50 (μM) BRD4(2)): 0.09 µM; pEC50 ([4]; Table 4, read-out: BRDT EC50): 5.00; EC50 ([5]; HD-MB03, Table 5): 1.68 µM; EC50 ([7]; HD-MB03, Table 5): 0.04 µM |
| CCCCCNc1cccc(-c2ccc3c(c2)[C@H](Nc2ccc(C(=O)OC)cc2)C[C@H](C)N3C(C)=O)c1 [compound 44] | 2.7 µM | 22.5 | 0.12 µM | 2.1 µM | 5.13 | 0.39 µM | 0.035 µM | 0.3 µM | – | – | – | – | – | – | – | – | – | – | – | – | – |
